Reference: US8030336B2, “Nicotinamide-based kinase inhibitors” (YM Biosciences Australia Pty Ltd, priority 2002, dated 2011)

Columns and labels:
Format in all cases: biochemical
fms = molecular target: T1, fms (Homo sapiens, UniProt P07333); assay: fms kinase assay (ELISA or Alphascreen); conditions: read-out: fms inhibition of enzyme activity
T1 sequence (P07333 582-910 limits assumed): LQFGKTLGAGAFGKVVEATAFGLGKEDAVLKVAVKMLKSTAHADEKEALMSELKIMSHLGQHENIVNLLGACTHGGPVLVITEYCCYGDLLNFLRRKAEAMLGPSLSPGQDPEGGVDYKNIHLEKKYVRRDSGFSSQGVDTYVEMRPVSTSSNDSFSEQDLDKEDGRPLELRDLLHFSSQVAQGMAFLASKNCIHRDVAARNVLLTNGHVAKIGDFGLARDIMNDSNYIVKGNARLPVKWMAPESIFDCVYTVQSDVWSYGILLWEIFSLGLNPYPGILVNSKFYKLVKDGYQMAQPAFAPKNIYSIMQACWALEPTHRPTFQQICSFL
Method in brief: (§1)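 PTK domain ~1.5 μg; 50 mM HEPES pH 7.5, 10 mM MgCl2, 150 mM NaCl; ATP 10 μM-1 mM; biotinylated peptide 5 μM final. Read-out: avidin-capture ELISA with PY20 or Alphascreen pTyr acceptor/streptavidin donor beads.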

abl = molecular target: T2, abl (Homo sapiens, UniProt P00519); assay: abl kinase assay (ELISA or Alphascreen); conditions: read-out: abl inhibition of enzyme activity
T2 sequence (P00519 242-493 limits assumed): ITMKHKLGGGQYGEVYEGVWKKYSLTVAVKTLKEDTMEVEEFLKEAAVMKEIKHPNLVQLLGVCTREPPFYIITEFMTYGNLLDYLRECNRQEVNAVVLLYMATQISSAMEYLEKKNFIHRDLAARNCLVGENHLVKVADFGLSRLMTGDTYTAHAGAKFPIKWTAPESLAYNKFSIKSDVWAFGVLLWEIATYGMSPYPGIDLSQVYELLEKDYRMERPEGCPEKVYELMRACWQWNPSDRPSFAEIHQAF
Method in brief: as §1

hck = hck (Homo sapiens, UniProt P08631); assay: hck kinase assay (ELISA or Alphascreen); conditions: read-out: hck inhibition of enzyme activity
Method: Kinase assays were performed in a 96 well capture-based ELISA assay or in 384 well Optiplates (Packard) using an Alphascreen Protein Tyrosine Kinase kit. In either case using approximately 1.5 μg of affinity purified PTK domain in the presence of 50 mM HEPES, pH 7.5, 10 mM MgCl2, 150 mM NaCl and 10 μM-1 mM ATP. The biotinylated substrate biotin-EGPWLEEEEEAYGWMDF-NH2 (SEQ ID NO:9) (final concentration 5 μM) was used as substrate. In the ELISA assay tyrosine phosphorylation was quantitated following transfer to an avidin coated ELISA plate using peroxidase-linked anti-phosphotyrosine antibody PY20. In the Alphascreen assay, Alphascreen phosphotyrosine acceptor beads followed by streptavidin donor beads were added under subdued light. The ELISA plates were read on a BMG Fluorostar, the Alphascreen plates were read on a Packard Fusion Alpha. Inhibitors were added to the assays fifteen minutes prior to the addition of ATP. Inhibitors were added in aqueous […] concentrations never exceeding 1%.

Zap70 = molecular target: T3, Zap70 (Homo sapiens, UniProt P43403); assay: Zap70 kinase assay (ELISA or Alphascreen); conditions: read-out: Zap70 inhibition of enzyme activity
T3 sequence (P43403 338-600 limits assumed): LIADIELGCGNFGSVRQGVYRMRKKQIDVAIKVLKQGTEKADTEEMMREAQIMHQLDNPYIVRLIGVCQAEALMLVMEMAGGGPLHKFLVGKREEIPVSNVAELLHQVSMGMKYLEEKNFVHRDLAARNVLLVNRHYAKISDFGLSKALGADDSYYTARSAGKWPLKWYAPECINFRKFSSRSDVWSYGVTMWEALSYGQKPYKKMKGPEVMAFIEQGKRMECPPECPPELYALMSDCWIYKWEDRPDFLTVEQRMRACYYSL
Method in brief: as §1

fes = fes (Homo sapiens, UniProt P07332); assay: fes kinase assay (ELISA or Alphascreen); conditions: read-out: fes inhibition of enzyme activity
Method in brief: as §1

human JAK2 = molecular target: T4, human JAK2 (Homo sapiens, UniProt O60674); assay: JAK2 kinase assay (ELISA or Alphascreen); conditions: read-out: Jak2 inhibition of enzyme activity
T4 construct: The kinase domain of human JAK2 was amplified from U937mRNA; His tag (from the pFastBac HTc vector) (N); made in house; host or cells: baculovirus; Sf9 for virus, High Five insect cells for production
Method in brief: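 His-tagged human JAK2 kinase domain from baculovirus-infected insect cells, ~1.5 μg per assay, in 50 mM HEPES pH 7.5, 10 mM MgCl2, 150 mM NaCl, with 10 μM–1 mM ATP and 5 μM biotinylated peptide substrate. Phosphotyrosine detected by PY20 ELISA or AlphaScreen.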

human JAK3 = molecular target: T5, human JAK3 (Homo sapiens, UniProt P52333); assay: JAK3 kinase assay (ELISA or Alphascreen); conditions: read-out: Jak3 inhibition of enzyme activity
T5 construct: The kinase domain of human JAK3 was amplified from U937mRNA; His tag (from the pFastBac HTb vector) (N); made in house; host or cells: baculovirus; Sf9 for virus, High Five insect cells for production
Method in brief: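 Read-out: anti-phosphotyrosine detection of a 5 μM biotin-peptide substrate, via PY20-peroxidase ELISA or Alphascreen beads. Enzyme was nickel-purified recombinant JAK3 kinase domain (~1.5 μg), with ATP at 10 μM-1 mM, pH 7.5 HEPES/MgCl2/NaCl.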

T4 sequence (O60674 849-1124 limits assumed): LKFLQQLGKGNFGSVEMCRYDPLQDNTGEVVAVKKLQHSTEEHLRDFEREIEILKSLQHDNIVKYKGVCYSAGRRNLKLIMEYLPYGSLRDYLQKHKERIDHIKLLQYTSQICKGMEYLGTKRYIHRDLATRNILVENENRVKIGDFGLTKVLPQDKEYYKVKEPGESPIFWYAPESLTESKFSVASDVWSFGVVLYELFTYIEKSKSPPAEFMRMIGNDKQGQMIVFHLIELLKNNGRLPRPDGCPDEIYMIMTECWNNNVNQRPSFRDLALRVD
T5 sequence (P52333 822-1111 limits assumed): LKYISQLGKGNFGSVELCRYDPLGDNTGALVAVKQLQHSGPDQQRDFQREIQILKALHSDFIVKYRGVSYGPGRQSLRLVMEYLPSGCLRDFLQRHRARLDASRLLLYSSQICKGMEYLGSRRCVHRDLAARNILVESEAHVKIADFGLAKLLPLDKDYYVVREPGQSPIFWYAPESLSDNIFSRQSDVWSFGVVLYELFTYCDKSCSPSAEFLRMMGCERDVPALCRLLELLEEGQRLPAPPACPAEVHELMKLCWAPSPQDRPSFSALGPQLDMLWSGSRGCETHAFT
Sequence of fes (P07332 561-822 limits assumed, species assumed): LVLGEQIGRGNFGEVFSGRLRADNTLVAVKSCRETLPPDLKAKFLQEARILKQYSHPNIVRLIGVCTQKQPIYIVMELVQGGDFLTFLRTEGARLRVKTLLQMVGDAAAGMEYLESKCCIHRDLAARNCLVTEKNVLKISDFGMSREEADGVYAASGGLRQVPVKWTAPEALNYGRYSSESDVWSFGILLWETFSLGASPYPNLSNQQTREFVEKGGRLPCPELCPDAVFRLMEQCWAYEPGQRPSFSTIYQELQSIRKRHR
Sequence of hck (P08631 262-515 limits assumed, species assumed): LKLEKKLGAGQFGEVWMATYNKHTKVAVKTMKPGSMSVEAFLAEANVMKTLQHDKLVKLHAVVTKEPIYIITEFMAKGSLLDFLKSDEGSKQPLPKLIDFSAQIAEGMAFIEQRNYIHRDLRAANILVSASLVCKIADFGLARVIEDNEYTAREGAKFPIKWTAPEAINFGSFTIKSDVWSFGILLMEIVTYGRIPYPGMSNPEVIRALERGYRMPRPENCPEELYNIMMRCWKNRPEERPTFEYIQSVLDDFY

| SMILES | inhibition at 10 µM (fms) [%] | inhibition at 10 µM (abl) [%] | inhibition at 10 µM (hck) [%] | inhibition at 10 µM (Zap70) [%] | inhibition at 10 µM (fes) [%] | inhibition at 10 µM (human JAK2) [%] | inhibition at 10 µM (human JAK3) [%] |
| --- | --- | --- | --- | --- | --- | --- | --- |
| COc1ccc(NC(=O)c2cncc(-c3cc(OC)c(OC)c(OC)c3)c2)c(OC)c1 | < 50 | < 50 | < 50 | < 50 | < 50 |  |  |
| COc1cc(-c2cncc(C(=O)NCCO)c2)cc(OC)c1OC | < 50 | < 50 | < 50 | ≥ 50 | < 50 |  |  |
| COc1cc(-c2cncc(C(=O)NCCO)c2)ccc1O |  | < 50 | < 50 | < 50 | < 50 | < 50 | < 50 |
| CC(C)NC(=O)c1cncc(-c2ccc(O)cc2)c1 | < 50 | < 50 | ≥ 50 | < 50 | < 50 | < 50 |  |
| COc1cc(-c2cncc(C(=O)Nc3ccccc3)c2)c(Cl)c(OC)c1OC |  | < 50 | < 50 | < 50 | < 50 | < 50 | < 50 |
| COc1cc(-c2cncc(C(=O)NCc3ccncc3)c2)c(Cl)c(OC)c1OC | < 50 | < 50 | < 50 | < 50 | < 50 | < 50 |  |
| Cc1cc(F)ccc1NC(=O)c1cncc(-c2ccc3c(c2)OCO3)c1 | < 50 | < 50 | < 50 | < 50 |  | < 50 | < 50 |
| COc1ccc(NC(=O)c2cncc(-c3cccs3)c2)c(OC)c1 | < 50 | < 50 | < 50 | < 50 | < 50 | < 50 |  |
| COc1cc(NC(=O)c2cncc(-c3cccs3)c2)cc(OC)c1OC | < 50 | < 50 | < 50 | < 50 | < 50 | < 50 |  |
| CC(C)C(CO)NC(=O)c1cncc(-c2ccc(F)cc2)c1 (stereo not drawn) | < 50 | < 50 | < 50 | < 50 | < 50 | < 50 |  |
| Cc1ccc(CNC(=O)c2cncc(-c3ccc(F)cc3)c2)cc1 | < 50 | < 50 | < 50 | < 50 | < 50 | < 50 |  |
| CN(Cc1ccccc1)C(=O)c1cncc(-c2ccc(F)cc2)c1 | < 50 | < 50 | < 50 | < 50 | < 50 | < 50 |  |
| COc1cccc(-c2cncc(C(=O)NC(C)CCc3ccccc3)c2)c1 (stereo not drawn) | < 50 | < 50 | < 50 | < 50 | < 50 | < 50 |  |
| O=C(NCc1ccc(F)cc1)c1cncc(-c2ccncc2)c1 | < 50 | < 50 | < 50 | < 50 | ≥ 50 |  |  |
| O=C(NCc1ccc(F)cc1)c1cncc(-c2cccnc2)c1 | < 50 | < 50 | < 50 | < 50 | < 50 |  |  |
| Cc1cc(F)ccc1NC(=O)c1cncc(-c2ccncc2)c1 | < 50 | < 50 | < 50 | < 50 | < 50 |  |  |
| Cc1cc(F)ccc1NC(=O)c1cncc(-c2cccnc2)c1 | < 50 | < 50 | < 50 | < 50 | < 50 |  |  |
